Read-outs that look alike come from different tables or passages of the source.

One assay concerns platelets. Nature of the assay: cells. The format is cell-based. On the set-up: reduction in spreading on the glass surface: dose or concentration left out as unconfirmed. The method, then: Platelet activation on surfaces can be inhibited by […] or […] fusion proteins. […] The cellular area of spread platelets was determined by computer assisted image analysis using NIH Image 1.61. […] Percent inhibition of spreading was calculated from the increase in mean cell area for untreated and treated samples vs. unspread DMSO controls.

In another assay the test system is gel filtered platelets. Briefly: Thrombin-induced platelet aggregation (aggregometer). The format is cell-based, human. As to conditions: for effect on platelet aggregation: thrombin or SFLLR induced. The method, then: In one series of experiments, platelets were purified from […] on a SEPHAROSE 2B column in PIPES buffered saline containing glucose, pre-incubated with 45 μM calpastat or S-TIPPEY-ala for 30 minutes at 37° C., and placed in a cuvette in a BIODATA aggregometer. The aggregometer measures turbidity of the solution by nephlometry (light scatter). Aggregation was induced with thrombin (0.1 to 1 unit/ml) or the thrombin receptor agonist peptide SFLLR (SEQ ID NO:5). […] In contrast, S-TIPPEY-ala had no activity. A version of S-TIPPEYIN lacking the signal sequence similarly had no activity.
In another series of experiments, gel filtered platelets were obtained and tested as follows. Blood from healthy, aspirin-free volunteers was collected by venipuncture into 4% sodium citrate (9:1 v/v, final concentration 0.4%) and centrifuged at 200×g for 20 minutes to obtain platelet rich plasma (PRP). Following incubation with apyrase (4 units/ml for 5 minutes at room temperature), platelets were purified from PRP by gel-filtration at room temperature using a Sepharose 2B column equilibrated in PIPES buffer (25 mM PIPES pH 6.8, 140 mM NaCl, 4 mM KCl, and 0.1% glucose) (Hsu-Lin, et al., J. Biol. Chem. 259:9121-9126, 1984). Final gel filtered platelet concentrations were about 1.5×10^8 cells/ml.
Gel filtered platelets (250 μl aliquots at 1.6×10^8/ml) were incubated with the indicated concentration of calpastat or mutant calpastat-ala for either 20 or 30 minutes at 37° C. in the absence of calcium and stirring. To test peptidyl calpain inhibitors, platelets were preincubated with the indicated concentration of calpeptin, MDL, E64d, DMSO (vehicle control) or NH4Cl (cathepsin control) for 10 minutes at 37° C. Following incubation, platelets were recalcified (CaCl2, 2 mM) and stimulated with 0.05-1.0 unit/ml thrombin, while being stirred (1400 rpm) at 37° C. The sensitivity of platelet preparations to thrombin decreased over the course of a given experiment. The thrombin concentration used was to elicit robust aggregation and varied between 0.05 and 1.0 U/ml. Aggregation was measured using a Bio-Data lumi-aggregometer. Percent inhibition of aggregation was measured at 4 minutes following the onset of aggregation. The initial rate of aggregation during the first 15 seconds for treated vs. untreated samples was used to calculate the IC50 for each inhibitor.

The subject of a further assay is HIV-1. The method, then:
(§1) U1 is a human promonocytic cell line that is chronically infected with HIV-1 and that constitutively expresses low levels of HIV-1. […] In the present experiment, 1×10^6 cells/ml were treated with various dosages of calpastat and incubated for one hour at 37° C. After incubation, various concentrations of Tpg were added to the calpastat-treated cells and aliquoted into a 24-well plate. To observe the stimulation of HIV-1 activity by Tpg, equivalent numbers of cells were treated with Tpg alone. The cells were then incubated at 37° C. for up to four days, and supernatants from the cell culture were collected each day to measure HIV-1 activity. The viability of cells treated with both Tpg and calpastat were determined each day by Trypan-blue exclusion test. The HIV-1 activity in the collected supernatants was determined by measuring the HIV-1 p24 core antigen protein by ELISA (Dupont Medical Products, Boston, Mass.) according to the manufacturer's instructions.
In another series of experiments, U1 cells, which are latently infected with HIV-1 provirus, were plated at 10^6 cells/well in 1 ml of medium and treated with varying concentrations of either calpastat (FIG. 7E) or calpeptin (benzyloxycarbonyl-leucyl-norleucinal) (FIG. 7F) for 45 minutes before addition of thapsigargin (4 nM final concentration). […] After 48 hours of stimulation, HIV-1 p24 antigen levels were determined in 200 μl of tissue culture supernatant, using a p24 ELISA (DuPont). All assays were performed on triplicate cultures.

Assay [1] concerns platelet rich plasma (PRP). Nature of the assay: Platelet disk-to-sphere shape change after cold storage (ESC assay). The format is cell-based. On the set-up: cold storage of PRP, extent of shape change (ESC): dose or concentration left out as unconfirmed. The method, then:
Disk-to-sphere shape change was then assayed using the extent of shape change (ESC) assay (Holme et al., Transfusion 38:31-40, 1998). Briefly, samples of stored PRP were treated to induce disk-to-sphere shape change by cold storage and the addition of EDTA (to prevent aggregation). ADP was then added as a stimulus to measure ESC, and shape change was measured by determining light transmission through the sample. If the initial storage conditions caused considerable disk-to-sphere shape change, there would be little additional shape change upon addition of EDTA and ADP. Conversely, if the initial storage conditions caused little disk-to-sphere shape change, there would be considerable additional shape change upon addition of EDTA and ADP. The results of three experiments in which 24 hour storage of platelets at 4° C. was tested, in the presence and absence of calpastat, are shown in FIG. 12. The bracket labelled “fresh CDP” indicates the ESC that can be expected for fresh PRP in CPD, and the bracket marked “cold EDTA-treated PRP” indicates the ESC that can be expected for PRP subjected to cold storage in EDTA.
The day O control is an assay performed on fresh PRP with no cold storage in standard buffer.

For another assay, the system named is U1 cells. Briefly: U1 cell viability (Trypan-blue exclusion). The format is cell-based, human. As to conditions: 5 μM calpastat, 96 hr; from 40% without. The method, then: as §1
In another series of experiments, U1 cells, which are latently infected with HIV-1 provirus, were plated at 10^6 cells/well in 1 ml of medium and treated with varying concentrations of either calpastat (FIG. 7E) or calpeptin (benzyloxycarbonyl-leucyl-norleucinal) (FIG. 7F) for 45 minutes before addition of thapsigargin (4 nM final concentration). The viability of U1 monocytes was 90% at 48 hours of thapsigargin (4 nM) treatment, in the presence or absence of calpain inhibitors. After 48 hours of stimulation, HIV-1 p24 antigen levels were determined in 200 μl of tissue culture supernatant, using a p24 ELISA (DuPont). All assays were performed on triplicate cultures. Mean values and standard deviations are shown for each concentration of inhibitor (FIGS. 7E-7F).

Consider “AAVALLPAVLLALLAPEKLAERADAAAPEAAELLEKKTGV [Calpastat-ala]”, for which the “effect on platelet spreading” value in the assay with platelets (spreading on glass) is “minimal inhibition”. The IC50 is over 100 µM in the assay with platelets (spreading on glass, NI=no inhibition, read-out: IC50, inhibition of platelet spreading) and over 50 µM with gel filtered platelets (initial rate during first 15 seconds, NI=no inhibition, peptidyl inhibitors 10 min pre-incubation, read-out: IC50, initial rate of thrombin-induced platelet aggregation). The “effect on platelet aggregation” value with gel filtered platelets is on record as “no measurable effect”; in the assay with gel filtered platelets (listed as S-TIPPEY-ala) it was “no activity”.

In the case of “H-AAVALLPAVLLALLAPEKLGERDDTIPPEYRELLEKKTGV-OH [Calpastat]”, the “decrease of mean fold viral production” value was 47% in the assay on HIV-1 (5 μM, 24 hours of Tpg stimulation); 44% with HIV-1 (5 μM, 46 hours of Tpg stimulation); 55% in the assay with HIV-1 (5 μM, 72 hours of Tpg stimulation); 61% with HIV-1 (5 μM, 96 hours of Tpg stimulation). The “inhibition of HIV-1 release from infected cells” value in the assay with HIV-1 (5 μM, overall) was “about 50%”. Also, the IC50 amounted to 0.05 µM with HIV-1 (read-out: IC50, inhibition of HIV-1 replication, FIG. 7E, U1 cells, thapsigargin 4 nM, 48 hours); 35 µM in the assay on platelets; 50 µM with gel filtered platelets (no unit printed, read-out: IC50 of calpastat, initial rate of thrombin-induced aggregation). Besides, the “inhibition of platelet spreading relative to calpastat-ala control” value with platelets (100 μM, 30 minutes pre-incubation) worked out at 0%; with platelets (100 μM, 60 minutes pre-incubation), 46%; in the assay on platelets (100 μM, 90 minutes pre-incubation), 80%. In addition, the “platelets round and unspread on glass” value in the assay with platelets (100 μM, 1.5 hours) is “Half”. Moreover, the “reduction in spreading on the glass surface” value with platelets (90 minutes at 37° C.) is listed as 70%. Further, the “cold storage of PRP, extent of shape change (ESC)” value in assay [1] (about 24 hours at 4° C., compared to EDTA) is on record as “significantly improved cold storage”. Moreover, the “protection against disk-to-sphere shape change” value in assay [1] (five days at 4° C.) is “considerable protection”. Moreover, the “viability of U1 cells in 4 nM Tpg” value with U1 cells was determined as 90%. Further, the “concentration of maximal inhibition of platelet aggregation” value in the assay on gel filtered platelets (30 minutes pre-incubation at 37° C.) was 45 µM. In addition, the “effect on platelet aggregation” value in the assay on gel filtered platelets was “inhibited platelet aggregation and secretion”.

Values taken from patent US6867186B2, “Cell-permeable protein inhibitors of calpain” (New England Medical Center Hospital, priority 1997, dated 2005).
